In US10766869B2, “Triazoles for the treatment of demyelinating dieases” (Vertex Pharmaceuticals Incorporated, priority 2015, dated 2020):

Test system: primary rat mixed cortical cells
Experiment: In vitro myelination assay (MBP positive myelin strands, fold myelin pixels above background)
Format: cell-based
Conditions: Rattus norvegicus, relative to baseline of no added compound, read-out: Fold myelin pixels above background; for fold induction at 1 µM: 1.0 μM compound; for fold induction at 10 µM: 10.0 μM compound
In short: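 Myelination read as total MBP-immunopositive strand pixels per well, imaged at 10× after fixation on day 14 and expressed relative to untreated wells, at 1.0 and 10.0 μM. Cells: dissociated postnatal day 1 rat cortex, cultured two weeks with compound, re-dosed at days 6 and 10.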

Work on `COc1c(F)cc(-n2cnc(Nc3cc(C)cc(N4CCN(C5COC5)CC4)c3)n2)cc1F` [Compound 646, 1-(3,5-difluoro-4-methoxy-phenyl)-N-[3-methyl-5-[4-(oxetan-3-yl)piperazin-1-yl]phenyl]-1,2,4-triazol-3-amine] yielded a fold induction at 1 µM of 10 to 100 and a fold induction at 10 µM of 1 to 10.

Compound `Cc1cc(-n2cnc(Nc3cc(F)cc(N4CCN(C5COC5)CC4)c3)n2)ccc1F` [Compound 647, 1-(4-fluoro-3-methyl-phenyl)-N-[3-fluoro-5-[4-(oxetan-3-yl)piperazin-1-yl]phenyl]-1,2,4-triazol-3-amine] has a fold induction at 1 µM of 1 to 10 and a fold induction at 10 µM of at most 1.

`Cc1cc(Nc2ncn(-c3cc(F)cc(F)c3)n2)cc(OCC2CCOC2)c1` (stereo not drawn) [Compound 648, 1-(3,5-difluorophenyl)-N-[3-methyl-5-(tetrahydrofuran-3-ylmethoxy)phenyl]-1,2,4-triazol-3-amine] was tested, and the fold induction at 1 µM was 10 to 100 and the fold induction at 10 µM was 10 to 100.

In the case of `CN1CCN(c2cc(N3CCN(C4COC4)CC3)cc(Nc3ncn(-c4cc(F)cc(F)c4)n3)n2)CC1` [Compound 650, N-[1-(3,5-difluorophenyl)-1,2,4-triazol-3-yl]-6-(4-methylpiperazin-1-yl)-4-[4-(oxetan-3-yl)piperazin-1-yl]pyridin-2-amine], the fold induction at 1 µM is reported as 10 to 100 and the fold induction at 10 µM is reported as 1 to 10.

With `Cc1cc(Nc2ncn(-c3cccc(C(F)(F)F)c3)n2)cc(N2CC(N3CCOCC3)C2)c1` [Compound 651, N-[3-methyl-5-(3-morpholinoazetidin-1-yl)phenyl]-1-[3-(trifluoromethyl)phenyl]-1,2,4-triazol-3-amine] the fold induction at 1 µM was 10 to 100 and the fold induction at 10 µM was 1 to 10.

`Cc1cc(Nc2ncn(-c3cc(F)cc(F)c3)n2)cc(N2CC(N3CCOC4CC43)C2)c1` (stereo not drawn) [Compound 652, 1-(3,5-difluorophenyl)-N-[3-methyl-5-[3-(5-oxa-2-azabicyclo[4.1.0]heptan-2-yl)azetidin-1-yl]phenyl]-1,2,4-triazol-3-amine] showed a fold induction at 1 µM of 10 to 100 and a fold induction at 10 µM of at most 1.

In the case of `CC(C)Oc1cc(Nc2ncn(-c3cc(F)cc(F)c3)n2)cc(N2CCN(C3COC3)CC2)c1` [Compound 653, 1-(3,5-difluorophenyl)-N-[3-isopropoxy-5-[4-(oxetan-3-yl)piperazin-1-yl]phenyl]-1,2,4-triazol-3-amine], the fold induction at 1 µM is reported as 10 to 100 and the fold induction at 10 µM is reported as at most 1.

`CCN1CCN(c2cc(C(F)(F)F)cc(Nc3ncn(-c4cc(F)cc(F)c4)n3)n2)CC1` [Compound 654, N-[1-(3,5-difluorophenyl)-1,2,4-triazol-3-yl]-6-(4-ethylpiperazin-1-yl)-4-(trifluoromethyl)pyridin-2-amine] gave a fold induction at 1 µM of 1 to 10 and a fold induction at 10 µM of 1 to 10.

For `N#Cc1cc(Nc2ncn(-c3ccc(F)c(F)c3)n2)cc(N2CCN(C3COC3)CC2)c1` [Compound 656, 3-[[1-(3,4-difluorophenyl)-1,2,4-triazol-3-yl]amino]-5-[4-(oxetan-3-yl)piperazin-1-yl]benzonitrile], the fold induction at 1 µM was 1 to 10 and the fold induction at 10 µM was at most 1.

With `CN1CCN(c2cc(Nc3ncn(-c4cc(F)cc(F)c4)n3)cc(N3CCN(C)CC3)c2)CC1` [Compound 657, N-[3,5-bis(4-methylpiperazin-1-yl)phenyl]-1-(3,5-difluorophenyl)-1,2,4-triazol-3-amine] the fold induction at 1 µM was 1 to 10 and the fold induction at 10 µM was at most 1.

With `Cc1cc(Nc2ncn(-c3ccc(F)c(F)c3)n2)cc(N2CC(N3CCCOCC3)C2)c1` [Compound 659, 1-(3,4-difluorophenyl)-N-[3-methyl-5-[3-(1,4-oxazepan-4-yl)azetidin-1-yl]phenyl]-1,2,4-triazol-3-amine] the fold induction at 1 µM was 10 to 100 and the fold induction at 10 µM was 10 to 100.

`Fc1cc(F)cc(-n2cnc(Nc3cc(N4CC(N5CCOCC5)C4)cc(Cl)n3)n2)c1` [Compound 660, 6-chloro-N-[1-(3,5-difluorophenyl)-1,2,4-triazol-3-yl]-4-(3-morpholinoazetidin-1-yl)pyridin-2-amine] was tested, and the fold induction at 1 µM was at most 1 and the fold induction at 10 µM was at most 1.

`Cc1cc(Nc2ncn(-c3cc(F)cc(F)c3)n2)cc(N2CC(N3CCS(=O)(=O)CC3)C2)c1` [Compound 661, 1-(3,5-difluorophenyl)-N-[3-[3-(1,1-dioxo-1,4-thiazinan-4-yl)azetidin-1-yl]-5-methyl-phenyl]-1,2,4-triazol-3-amine] was tested, and the fold induction at 1 µM was 10 to 100 and the fold induction at 10 µM was 1 to 10.

For `COc1cc(Nc2ncn(-c3cccc(C(F)(F)F)c3)n2)cc(N2CCN(C3COC3)CC2)c1` [Compound 662, N-[3-methoxy-5-[4-(oxetan-3-yl)piperazin-1-yl]phenyl]-1-[3-(trifluoromethyl)phenyl]-1,2,4-triazol-3-amine], the fold induction at 1 µM was 10 to 100 and the fold induction at 10 µM was at most 1.

With `Cc1cc(Nc2ncn(-c3cc(F)cc(F)c3)n2)cc(C2CN(C3COC3)CC(C)O2)c1` (stereo not drawn) [Compound 663, 1-(3,5-difluorophenyl)-N-[3-methyl-5-[6-methyl-4-(oxetan-3-yl)morpholin-2-yl]phenyl]-1,2,4-triazol-3-amine] the fold induction at 1 µM was 10 to 100 and the fold induction at 10 µM was at most 1.

In the case of `CNC(=O)c1cc(Nc2ncn(-c3cc(F)cc(F)c3)n2)nc(N2CCN(C3COC3)CC2)c1` [Compound 664, 2-[[1-(3,5-difluorophenyl)-1,2,4-triazol-3-yl]amino]-N-methyl-6-[4-(oxetan-3-yl)piperazin-1-yl]pyridine-4-carboxamide], the fold induction at 1 µM is reported as 1 to 10 and the fold induction at 10 µM is reported as 1 to 10.

Work on `N#Cc1cc(Nc2ncn(-c3cnccn3)n2)cc(N2CCOCC2)c1` [Compound 666, 3-morpholino-5-[(1-pyrazin-2-yl-1,2,4-triazol-3-yl)amino]benzonitrile] yielded a fold induction at 1 µM of 10 to 100 and a fold induction at 10 µM of 1 to 10.

With `N#Cc1cc(Nc2ncn(-c3ccc(F)c(F)c3)n2)cc(N2CCOCC2)c1` [Compound 668, 3-[[1-(3,4-difluorophenyl)-1,2,4-triazol-3-yl]amino]-5-morpholino-benzonitrile] the fold induction at 1 µM was 1 to 10 and the fold induction at 10 µM was 1 to 10.

`Cc1cc(Nc2ccn(C(C)C)n2)cc(Nc2ncn(-c3ccccc3)n2)c1` [Compound 669, N3-(1-isopropylpyrazol-3-yl)-5-methyl-N1-(1-phenyl-1,2,4-triazol-3-yl)benzene-1,3-diamine] showed a fold induction at 1 µM of 10 to 100 and a fold induction at 10 µM of at most 1.

`Cc1cc(Nc2ncn(-c3cc(F)cc(F)c3)n2)cc(N2CC(N3CCOC[C@H]3C)C2)c1` [Compound 670, 1-(3,5-difluorophenyl)-N-[3-methyl-5-[3-[(3R)-3-methylmorpholin-4-yl]azetidin-1-yl]phenyl]-1,2,4-triazol-3-amine] was tested, and the fold induction at 1 µM was 10 to 100 and the fold induction at 10 µM was 10 to 100.

Work on `Cc1cc(Nc2ncn(-c3cccc(C(F)(F)F)c3)n2)cc(OCC2(C)COC2)c1` [Compound 671, N-[3-methyl-5-[(3-methyloxetan-3-yl)methoxy]phenyl]-1-[3-(trifluoromethyl)phenyl]-1,2,4-triazol-3-amine] yielded a fold induction at 1 µM of 10 to 100 and a fold induction at 10 µM of 1 to 10.

Work on `Fc1cc(F)cc(-n2cnc(Nc3cc(C(F)(F)F)cc(N4CCOCC4)n3)n2)c1` [Compound 674, N-[1-(3,5-difluorophenyl)-1,2,4-triazol-3-yl]-6-morpholino-4-(trifluoromethyl)pyridin-2-amine] yielded a fold induction at 1 µM of 1 to 10 and a fold induction at 10 µM of 1 to 10.

Work on `COC(=O)c1cc(Nc2ncn(-c3cc(F)cc(F)c3)n2)nc(N2CCOCC2)c1` [Compound 675, methyl 2-[[1-(3,5-difluorophenyl)-1,2,4-triazol-3-yl]amino]-6-morpholino-pyridine-4-carboxylate] yielded a fold induction at 1 µM of 1 to 10 and a fold induction at 10 µM of 1 to 10.

`Cc1cc(Nc2ncn(C)n2)cc(Nc2ncn(-c3ccccc3)n2)c1` [Compound 676, 5-methyl-N3-(1-methyl-1,2,4-triazol-3-yl)-N1-(1-phenyl-1,2,4-triazol-3-yl)benzene-1,3-diamine] was tested, and the fold induction at 1 µM was 10 to 100 and the fold induction at 10 µM was at most 1.

In the case of `Cc1cc(Nc2ncn(-c3cc(F)cc(F)c3)n2)cc(OCC2(C)COC2)c1` [Compound 677, 1-(3,5-difluorophenyl)-N-[3-methyl-5-[(3-methyloxetan-3-yl)methoxy]phenyl]-1,2,4-triazol-3-amine], the fold induction at 1 µM is reported as 100 to 1000 and the fold induction at 10 µM is reported as at most 1.

Work on `N#Cc1cc(Nc2ncn(-c3cc(F)cc(F)c3)n2)cc(N2CCN(C3COC3)CC2)c1` [Compound 678, 3-[[1-(3,5-difluorophenyl)-1,2,4-triazol-3-yl]amino]-5-[4-(oxetan-3-yl)piperazin-1-yl]benzonitrile] yielded a fold induction at 1 µM of 10 to 100 and a fold induction at 10 µM of 1 to 10.

For `FC(F)c1cc(Nc2ncn(-c3cccc(C(F)(F)F)c3)n2)nc(N2CCN(C3COC3)CC2)c1` [Compound 680, 4-(difluoromethyl)-6-[4-(oxetan-3-yl)piperazin-1-yl]-N-[1-[3-(trifluoromethyl)phenyl]-1,2,4-triazol-3-yl]pyridin-2-amine], the fold induction at 1 µM was 10 to 100 and the fold induction at 10 µM was 10 to 100.

With `Cc1cc(Nc2ncn(-c3ccccc3)n2)cc(Nc2ncn(-c3ccccc3)n2)c1` [Compound 681, 5-methyl-N1,N3-bis(1-phenyl-1,2,4-triazol-3-yl)benzene-1,3-diamine] the fold induction at 1 µM was 10 to 100 and the fold induction at 10 µM was 1 to 10.

`Cc1cc(Nc2ncn(-c3cc(F)cc(F)c3)n2)cc(N2CC(C)(N3CCOCC3)C2)c1` [Compound 683, 1-(3,5-difluorophenyl)-N-[3-methyl-5-(3-methyl-3-morpholino-azetidin-1-yl)phenyl]-1,2,4-triazol-3-amine] was tested, and the fold induction at 1 µM was 10 to 100 and the fold induction at 10 µM was 10 to 100.

In the case of `FC(F)(F)c1cc(Nc2ncn(-c3cccnc3)n2)nc(N2CCN(C3COC3)CC2)c1` [Compound 684, 6-[4-(oxetan-3-yl)piperazin-1-yl]-N-[1-(3-pyridyl)-1,2,4-triazol-3-yl]-4-(trifluoromethyl)pyridin-2-amine], the fold induction at 1 µM is reported as 10 to 100 and the fold induction at 10 µM is reported as 10 to 100.
